biological target: T1, cPLA2 (Homo sapiens, UniProt P47712); experiment: cPLA2 Inhibitory Activity; type: biochemical; details: 1-palmitoyl-2-[14C]-arachidonoyl-sn-glycero-3-phosphocholine 2.5 μM, sn-1,2-dioleoylglycerol 1.25 μM; pH 7.5, 15 min at 37° C.
T1 sequence (P47712 1-749): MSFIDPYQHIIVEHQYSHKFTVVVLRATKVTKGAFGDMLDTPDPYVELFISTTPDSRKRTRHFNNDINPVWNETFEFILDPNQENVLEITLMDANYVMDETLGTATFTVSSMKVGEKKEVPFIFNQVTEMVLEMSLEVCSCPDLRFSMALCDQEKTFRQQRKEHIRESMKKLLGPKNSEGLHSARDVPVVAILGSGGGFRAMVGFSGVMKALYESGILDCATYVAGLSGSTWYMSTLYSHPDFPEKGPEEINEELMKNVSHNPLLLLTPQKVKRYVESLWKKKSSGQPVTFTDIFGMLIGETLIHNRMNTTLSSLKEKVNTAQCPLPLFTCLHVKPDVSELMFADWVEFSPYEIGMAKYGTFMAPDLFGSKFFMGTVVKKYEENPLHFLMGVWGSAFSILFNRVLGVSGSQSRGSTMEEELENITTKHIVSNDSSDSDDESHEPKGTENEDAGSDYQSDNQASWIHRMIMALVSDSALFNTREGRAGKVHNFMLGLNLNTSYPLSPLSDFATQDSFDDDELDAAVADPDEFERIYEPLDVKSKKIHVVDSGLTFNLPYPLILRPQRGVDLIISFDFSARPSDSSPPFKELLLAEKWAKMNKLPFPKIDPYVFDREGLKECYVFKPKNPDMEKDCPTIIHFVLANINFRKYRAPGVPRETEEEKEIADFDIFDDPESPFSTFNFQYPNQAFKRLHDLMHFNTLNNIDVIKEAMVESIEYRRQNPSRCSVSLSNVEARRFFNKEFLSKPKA
Experimental: Test Example 1 cPLA2 Inhibitory Activity The compounds of the present invention were tested for the cPLA2 inhibitory activity according to the method disclosed in […]. Roberts, […], and J. E. Putnam, J. Biol. Chem., 1991, 266, 5268-5272 as outlined below. […] The reaction mixture includes 50 mM HEPES buffer (pH 7.5), 1 mM calcium chloride, 150 mM sodium chloride, 0.1 mg/ml bovine serum albumin, and 1.7 mM dithiothreitol. To the reaction mixture was added the compound of the present invention and the substrate solution. The reaction was allowed to start by adding an enzyme and continued for 15 min at 37° C. The fatty acids released by the reaction were extracted by the method described in V. P. Dole, and H. Meinertz, J. Biol. Chem., 1960, 235, 2595-2599 and its radiation activity was measured on a liquid scintillation counter. Control was obtained by conducting the experiment in the same manner except that a compound of the present invention was not added.

**Q.** `C/C(=C/C(=O)c1ccccc1)C(=O)N1C[C@H](OCc2ccccc2-c2ccccc2)C[C@H]1CNC(=O)c1ccc(/C=C2\SC(=O)NC2=O)cc1` [Compound A-9] was tested. Which IC50 did it give?
**A.** 5500 nM

**Q.** How did the IC50 turn out when `CC(C)N(Cc1ccccc1)[C@@H]1C[C@@H](CNC(=O)c2ccc(/C=C3\SC(=S)NC3=O)cc2)N(C(=O)c2ccccc2C(=O)c2ccc(F)cc2)C1` [Compound M-4] was run?
**A.** 140 nM

**Q.** `CC(C)CN(CC(C)C)[C@@H]1C[C@@H](CNC(=O)c2ccc(/C=C3\SC(=O)NC3=O)cc2)N(C(=O)c2ccccc2C(=O)c2ccc(F)cc2)C1` [Compound M-15] was tested. Which IC50 did it give?
**A.** 150 nM

**Q.** `CN(C(=O)C[C@@H]1C[C@@H](OCc2ccccc2-c2ccccc2)CN1C(=O)c1ccccc1C(=O)c1ccc(F)cc1)c1ccc(/C=C2\SC(=O)NC2=O)cc1` [Compound G-13] was tested. Which IC50 did it give?
**A.** 5600 nM

**Q.** `CN(C(=O)[C@@H]1C[C@@H](OCc2ccccc2-c2ccccc2)CN1C(=O)c1ccccc1C(=O)c1ccc(F)cc1F)c1ccc(/C=C2\SC(=S)NC2=O)cc1` [Compound G-12] was tested. Which IC50 did it give?
**A.** 2800 nM

**Q.** Which IC50 does the source give for `Cc1c(CO[C@@H]2C[C@@H](CNC(=O)c3ccc(/C=C4\SC(=O)NC4=O)cc3)N(C(=O)c3ccccc3C(=O)c3ccc(F)cc3)C2)cccc1-c1ccccc1` [Compound A-31] here?
**A.** 200 nM

**Q.** How did the IC50 turn out when `O=C1NC(=S)SC1=C[C@@H]1C[C@@H](OCc2ccccc2-c2ccccc2)CN1C(=O)c1ccccc1C(=O)c1ccc(F)cc1` [Compound H-1] was run?
**A.** 10000 nM

**Q.** With `O=C1NC(=O)C(=CC2CCN(C(=O)[C@@H]3C[C@@H](OCc4ccccc4-c4ccccc4)CN3C(=O)c3ccccc3C(=O)c3ccc(F)cc3)CC2)S1` [Compound B-9] as the compound, how does the IC50 read?
**A.** 14000 nM

**Q.** For `CC(C)CN(Cc1ccccc1-c1ccccc1)[C@@H]1C[C@@H](CNC(=O)/C=C/c2ccc(/C=C3\SC(=O)NC3=O)cc2)N(C(=O)c2ccccc2C(=O)c2ccc(F)cc2)C1` [Compound M-19], which IC50 is on record?
**A.** 3.1 nM

**Q.** `O=C1NC(=O)/C(=C/c2ccc(C(=O)NC[C@@H]3C[C@@H](Oc4cccc(-c5cccc(O)c5)c4)CN3C(=O)c3ccccc3C(=O)c3ccc(F)cc3)cc2)S1` [Compound A-106] was tested. Which IC50 did it give?
**A.** 200 nM

**Q.** How did the IC50 turn out when `O=C1NC(=O)/C(=C/c2ccc(C(=O)NC[C@@H]3C[C@@H](OCc4cccc(-c5ccc6ccccc6c5)c4)CN3C(=O)c3ccccc3C(=O)c3ccc(F)cc3)cc2)S1` [Compound A-42] was run?
**A.** 140 nM

**Q.** With `O=C1NC(=O)/C(=C/c2ccc(C(=O)NC[C@@H]3C[C@@H](OCc4ccccc4-c4ccccc4)CN3C(=O)c3ccccc3C(=O)c3ccc(F)cc3)cc2)O1` [Compound A-54] as the compound, how does the IC50 read?
**A.** 140 nM

**Q.** With `CC(C)CN(C(c1ccccc1)c1ccccc1)[C@@H]1C[C@@H](CNC(=O)/C=C/c2ccc(/C=C3\SC(=O)NC3=O)cc2)N(C(=O)c2ccccc2C(=O)c2ccc(F)cc2)C1` [Compound M-20] as the compound, how does the IC50 read?
**A.** 6.4 nM

**Q.** Which IC50 does the source give for `CN(Cc1ccc(/C=C2\SC(=S)NC2=O)cc1)C[C@@H]1C[C@@H](OCc2ccccc2-c2ccccc2)CN1C(=O)c1ccccc1C(=O)c1ccc(F)cc1` [Compound G-2] here?
**A.** 5400 nM

**Q.** How did the IC50 turn out when `CC(=O)N(Cc1ccc(/C=C2\SC(=S)NC2=O)cc1)C[C@@H]1C[C@@H](OCc2ccccc2-c2ccccc2)CN1C(=O)c1ccccc1C(=O)c1ccc(F)cc1` [Compound G-5] was run?
**A.** 1600 nM

**Q.** With `CN(C(=O)[C@@H]1C[C@@H](OCc2ccccc2-c2ccccc2)CN1C(=O)c1ccccc1C(=O)c1ccc(F)cc1)c1ccc(/C=C2\SC(=O)NC2=O)cc1` [Compound G-10] as the compound, how does the IC50 read?
**A.** 2400 nM

**Q.** How did the IC50 turn out when `CN(C(=O)[C@@H]1C[C@@H](OCc2ccccc2-c2ccccc2)CN1C(=O)c1ccccc1C(=O)c1ccc(F)cc1)c1ccc(/C=C2\SC(=S)NC2=O)cc1` [Compound G-11] was run?
**A.** 4000 nM

**Q.** Which IC50 does the source give for `O=C1NC(=O)/C(=C/c2ccc(C(=O)NC[C@@H]3C[C@@H](Oc4ccccc4-c4ccc(-c5ccccc5)cc4)CN3C(=O)c3ccccc3C(=O)c3ccc(F)cc3)cc2)S1` [Compound A-113] here?
**A.** 120 nM

**Q.** With `O=C1NC(=O)/C(=C/c2ccc(C(=O)NCC[C@@H]3C[C@@H](OCc4ccccc4-c4ccccc4)CN3C(=O)c3ccccc3C(=O)c3ccc(F)cc3)cc2)S1` [Compound F-2] as the compound, how does the IC50 read?
**A.** 4700 nM

**Q.** `O=C1NC(=O)/C(=C/c2ccc(C(=O)NC[C@@H]3C[C@@H](NC(=O)c4ccccc4-c4ccccc4)CN3C(=O)c3ccccc3C(=O)c3ccc(F)cc3)cc2)S1` [Compound M-16] was tested. Which IC50 did it give?
**A.** 2000 nM

**Q.** With `O=C1NC(=O)/C(=C/c2ccc(C(=O)NC[C@@H]3C[C@@H](OCc4ccccc4-c4ccccc4)CN3C(=O)CCC(=O)c3ccccc3)cc2)S1` [Compound A-7] as the compound, how does the IC50 read?
**A.** 5000 nM

**Q.** How did the IC50 turn out when `CN(Cc1ccc(/C=C2\SC(=O)NC2=O)cc1)C[C@@H]1C[C@@H](OCc2ccccc2-c2ccccc2)CN1C(=O)c1ccccc1C(=O)c1ccc(F)cc1` [Compound G-3] was run?
**A.** 3300 nM

**Q.** For `O=C1NC(=S)S/C1=C\c1ccc(CN(C[C@@H]2C[C@@H](OCc3ccccc3-c3ccccc3)CN2C(=O)c2ccccc2C(=O)c2ccc(F)cc2)C(=O)c2ccccc2)cc1` [Compound G-8], which IC50 is on record?
**A.** 1100 nM

**Q.** `O=C1NC(=S)S/C1=C\c1ccc(/C=C/[C@@H]2C[C@@H](OCc3ccccc3-c3ccccc3)CN2C(=O)c2ccccc2C(=O)c2ccc(F)cc2)s1` [Compound E-7] was tested. Which IC50 did it give?
**A.** 1600 nM

**Q.** With `O=C1NC(=S)S/C1=C\c1ccc(/C=C/C[C@@H]2C[C@@H](OCc3ccccc3-c3ccccc3)CN2C(=O)c2ccccc2C(=O)c2ccc(F)cc2)cc1` [Compound E-13] as the compound, how does the IC50 read?
**A.** 77 nM

**Q.** Which IC50 does the source give for `O=C1NC(=O)/C(=C/c2ccc(C(=O)NC[C@@H]3C[C@@H](OCc4ccccc4-c4ccccc4)CN3C(=O)c3ccccc3C(=O)c3ccc(F)cc3)o2)S1` [Compound A-64] here?
**A.** 2200 nM

**Q.** With `CC(C)Cc1cccc(-c2cccc3ccccc23)c1O[C@@H]1C[C@@H](CNC(=O)c2ccc(/C=C3\SC(=O)NC3=O)cc2)N(C(=O)c2ccccc2C(=O)c2ccc(F)cc2)C1` [Compound A-125] as the compound, how does the IC50 read?
**A.** 6.6 nM

**Q.** With `CC(C)CN(C(c1ccccc1)c1ccccc1)[C@@H]1C[C@@H](CNC(=O)c2ccc(/C=C3\SC(=O)NC3=O)cc2)N(C(=O)c2ccccc2C(=O)c2ccc(F)cc2)C1` [Compound M-13] as the compound, how does the IC50 read?
**A.** 13 nM

**Q.** `O=C1NC(=O)/C(=C/c2ccc(/C=C\[C@@H]3C[C@@H](OCc4ccccc4-c4ccccc4)CN3C(=O)c3ccccc3C(=O)c3ccc(F)cc3)s2)S1` [Compound E-6] was tested. Which IC50 did it give?
**A.** 1500 nM

**Q.** For `O=C1NC(=O)/C(=C/c2ccc(C(=O)NC[C@@H]3C[C@@H](Oc4ccc5c6c4CCCN6CCC5)CN3C(=O)c3ccccc3C(=O)c3ccc(F)cc3)cc2)S1` [Compound A-92], which IC50 is on record?
**A.** 57 nM

**Q.** `O=C(/C=C/C#C/C=C1\SC(=O)NC1=O)NC[C@@H]1C[C@@H](OCc2ccccc2-c2ccccc2)CN1C(=O)c1ccccc1C(=O)c1ccc(F)cc1` [Compound A-66] was tested. Which IC50 did it give?
**A.** 210 nM

**Q.** `CN(Cc1ccccc1)[C@@H]1C[C@@H](CNC(=O)c2ccc(/C=C3\SC(=O)NC3=O)cc2)N(C(=O)c2ccccc2C(=O)c2ccc(F)cc2)C1` [Compound M-1] was tested. Which IC50 did it give?
**A.** 1500 nM

**Q.** How did the IC50 turn out when `O=C1NC(=O)/C(=C/C2CCN(C(=O)[C@@H]3C[C@@H](SCc4ccccc4-c4ccccc4)CN3C(=O)c3ccccc3C(=O)c3ccc(F)cc3)CC2)S1` [Compound J-5] was run?
**A.** 8600 nM

**Q.** Which IC50 does the source give for `O=C1NC(=S)S/C1=C\c1ccc(CCC[C@@H]2C[C@@H](OCc3ccccc3-c3ccccc3)CN2C(=O)c2ccccc2C(=O)c2ccc(F)cc2)cc1` [Compound E-10] here?
**A.** 790 nM

**Q.** How did the IC50 turn out when `O=C1NC(=S)S/C1=C\C1CCN(C(=O)[C@@H]2C[C@@H](SCc3ccccc3-c3ccccc3)CN2C(=O)c2ccccc2C(=O)c2ccc(F)cc2)CC1` [Compound J-6] was run?
**A.** 13000 nM

**Q.** How did the IC50 turn out when `CC(C)Oc1ccccc1-c1ccccc1O[C@@H]1C[C@@H](CNC(=O)c2ccc(/C=C3\SC(=O)NC3=O)cc2)N(C(=O)c2ccccc2C(=O)c2ccc(F)cc2)C1` [Compound A-121] was run?
**A.** 65 nM

**Q.** For `O=C1NC(=S)S/C1=C\c1ccc(/C=C\C[C@@H]2C[C@@H](OCc3ccccc3-c3ccccc3)CN2C(=O)c2ccccc2C(=O)c2ccc(F)cc2)cc1` [Compound E-11], which IC50 is on record?
**A.** 320 nM

**Q.** For `O=C1NC(=O)/C(=C/c2ccc(/C=C/[C@@H]3C[C@@H](OCc4ccccc4-c4ccccc4)CN3C(=O)c3ccccc3C(=O)c3ccc(F)cc3)s2)S1` [Compound E-8], which IC50 is on record?
**A.** 1400 nM

**Q.** `O=C1NC(=O)/C(=C/c2ccc(C(=O)NC[C@@H]3C[C@@H](OCc4ccccc4-c4ccccc4)CN3C(=O)/C=C\C(=O)c3ccccc3)cc2)S1` [Compound A-8] was tested. Which IC50 did it give?
**A.** 24000 nM

**Q.** How did the IC50 turn out when `CC(=O)N(Cc1ccc(/C=C2\SC(=O)NC2=O)cc1)C[C@@H]1C[C@@H](OCc2ccccc2-c2ccccc2)CN1C(=O)c1ccccc1C(=O)c1ccc(F)cc1` [Compound G-7] was run?
**A.** 2800 nM

**Q.** How did the IC50 turn out when `CC(C)c1cccc(-c2cccc3ccccc23)c1O[C@@H]1C[C@@H](CNC(=O)c2ccc(/C=C3\SC(=O)NC3=O)cc2)N(C(=O)c2ccccc2C(=O)c2ccc(F)cc2)C1` [Compound A-114] was run?
**A.** 20 nM

From patent publication US6147100A, “Pyrrolidine derivatives having phospholipase A2 inhibitory activity” (Shionogi & Co., Ltd., priority 1997, dated 2000)
